Columns and labels:
Homo sapiens [1] = organism: Homo sapiens; assay: Selectivity for cathepsin S over cathepsin L
Homo sapiens [2] = organism: Homo sapiens; assay: Selectivity for cathepsin S over cathepsin B
Homo sapiens [3] = organism: Homo sapiens; assay: Selectivity for cathepsin S over cathepsin K

CC(C)Cc1ccc(-c2ccccc2OCC=O)c(F)c1F
Activity (Homo sapiens [1]): > 1000
Activity (Homo sapiens [2]): > 1000
Activity (Homo sapiens [3]): > 100

— ChEMBL document CHEMBL1143066, “Characterization and optimization of selective, nonpeptidic inhibitors of cathepsin S with an unprecedented binding mode” (J Med Chem, 2007)
